# According to patent US12139735B2, “Cell culture process” (Momenta Pharmaceuticals, Inc., priority 2011, dated 2024):
# Experiments:
# CL320 CHO cells = test: Growth (VCD), viability and antibody titer of the culture with supplemented feed; format: cell-based; conditions: addition of 10 mg/L (so in the source)
# Description: The carboxyl-terminal lysine residues of a model antibody produced by CHO cells were analyzed. […] […] On Day 5, 10 g/L cottonseed hydrolysate was added. VCD and viability were assessed, and cells were harvested on Day 10. The antibodies produced under the various conditions were evaluated for titer and C-terminal lysine by ion exchange chromatography.
# [1] = tested on: K1 and K2 lysine residues; test: Additional culture data: levels of K1/K2 lysine residues of the antibody produced; format: cell-based; conditions: included in culture media, compared to controls
SMILES,effect on growth (CL320 CHO cells),effect on titers (CL320 CHO cells),effect on viability (CL320 CHO cells),levels of K1 and K2 lysine residues [1]
"N=C(N)NCCC[C@H](N)C(=O)O [L-Arg, L-arginine]",did not affect,did not affect,did not affect,
"NCCCC[C@H](N)C(=O)O [L-Lys, L-lysine]",did not affect,did not affect,did not affect,
"Cl.N [NH4Cl, ammonium chloride]",,,,increased
